Test results from patent US12533348B2, “Ferroportin-inhibitors for the use in the treatment of transfusion-dependent beta-thalassemia (TDT)” (Vifor (International) AG, priority 2019, dated 2026).
Values joined by “and” are separate entries in the source; they are usually repeats but may differ in a detail not shown here. Identical values can stand only once.

Experiments:
[1] = tested on: Hbb^th3/+ mouse model of β-thalassemia intermedia; experiment: Combination study: serum iron (MULTIGENT Iron assay), transferrin ELISA and calculated TSAT; assay type: in vivo
Description: […] Anesthetized animals were subsequently euthanized by cervical dislocation.
Serum levels of iron were determined in triplicates using MULTIGENT Iron assay (Abbott Diagnostics, Cat. 6K95). Serum Transferrin (TO was measured in duplicates using a mouse-specific ELISA according to the manufacturer's instructions (Abcam, Cat. ab157724). Transferrin saturation (TSAT) was calculated using the formula: […]

[2] = Combination study: plasma concentrations of Fpn127 and DFX (LC-MS/MS); assay type: in vivo, mouse
Description: (§1) On day 23 (study end) 1 hour after dosing blood was collected by retro-orbital bleeding from pre-terminally anesthetized mice into BD Microtainer Tubes (Cat. 365967 and 365975) for determination of serum iron, transferrin, erythropoietin and compound exposure. Anesthetized animals were subsequently euthanized by cervical dislocation.
(§2) [formula] Serum EPO was measured using a mouse-specific DuoSet ELISA according to the manufacturer's instructions (R&D Systems, Cat. DY959). Plasma concentrations of Fpn127 and DFX were measured at GVK Biosciences, Hyderabad, IN. Flow Cytometric Analysis of Intracellular ROS, Mitochondria, and PS Exposure
Plasma was collected 1 hour after dosing of DFX on day 23 for determination of compound concentration by LC-MS/MS. Plasma exposure of DFX was similar in animals dosed with DFX alone or in combination with Fpn127 (FIG. 11, Table 12). […] As expected, plasma levels of Fpn127 were low as plasma was sampled approximately 20 h after the last dose of Fpn127.

[3] = tested on: Hbb^th3/+ mouse model of β-thalassemia intermedia; experiment: Combination study: hemoglobin (HemoCue photometer); assay type: in vivo; conditions: for Hb concentration: th3/+ mice, Fpn127 120 mg/kg QD p.o., mean
Description: (§3) One day after switching to lid a blood sample was taken by tail vein incision to determine the baseline Hb levels. Hb was measured using a HaemoCue® device. Hb was also measured on days 8, 15, and 22 in the morning before dosing. The animals were dosed p.o. D with 30 mg/kg DFX in 30% Kolliphor, 120 mg/kg Fpn127 in 0.5% C, or both for a total of 17 doses during the 23 days of study. 30% Kolliphor and 0.5% C were dosed as vehicles. The dose of DFX was administered at the beginning of the dark cycle (active phase) at 9:00 followed by 3 h of access to lid. Then, mice were dosed with Fpn127 (or 0.5% C) and were given access to sd for a 6 h period before switched back to lid. On the dosing was paused and mi had access to lid ad libitum.
Hb was measured on days 1, 8, 15 and 22. Individual Hb values were determined at the starting day of the experiment (day 1) and weekly thereafter during the experimental phase in the morning before the first daily dose. A blood sample was taken by tail vein incision and Hb was measured using a HemoCue® DM201 Hb photometer.

[4] = tested on: Hbb^th3/+ mouse model of β-thalassemia intermedia; experiment: Combination study: serum EPO (DuoSet ELISA); assay type: in vivo
Description: as §1, §2

[5] = tested on: Hbb^th3/+ mouse model of β-thalassemia intermedia; experiment: Combination study: flow cytometric analysis of intracellular ROS, mitochondria and PS exposure in mature RBC; assay type: in vivo
Description: In peripheral blood taken on day 22 by tail vein incision, ROS were detected with the indicator chloromethyl-2′,7′-dichlorodihydrofluorescein diacetate (CM-H2DCFDA, Invitrogen), the presence of mitochondria was detected with MitoTracker Deep Red FM (Invitrogen), and PS exposure was detected using the Annexin V Apoptosis Detection Kit (Invitrogen) in mature RBC labelled with Ter119 and CD71 antibodies.
For all analysis, cells were analyzed on a CANTOII cytometer (BD Biosciences) and data were analyzed using FlowJo® software (FlowJo, LLC, version 10.2).

[6] = tested on: Hbb^th3/+ mouse model of β-thalassemia intermedia; experiment: Combination study: erythroid differentiation stages in spleen by flow cytometry (Ter119/CD44/CD71); assay type: in vivo
From the text: Distinct stages of erythroid cell differentiation in spleens of female mice were identified by flow cytometry (CANTOII cytometer, BD Biosciences) using PE-conjugated rat anti-mouse CD71 (transferrin receptor-1, eBioscience, Cat. 12-0711), APC-conjugated rat anti-mouse Ter119 (erythroid lineage marker, eBioscience, Cat. 17-5921) and APC-Cy7-conjugated rat anti-mouse CD44 (adhesion molecule that progressively decreases on the surface of developing erythroid cells, BioLegend. Cat. 103028) antibodies. Data were analyzed using FlowJo® software (FlowJo. LLC, version 10.1) Serum Parameters

[7] = Combination study DFX/Fpn127: clinical observations, mortality and body weight; assay type: in vivo, mouse; conditions: for BW: th3/+ mice, mean
Description: as §3
Animals and their cages were checked daily by the experimenter during the study on working days. During the experimental phase, animals were weighted minimum once per week and scored according to their clinical symptoms: BW, general behavior and activity, appearance of hair coat, eyes, and nose. Clinical observations were recorded when present on separate score sheets.
BW was recorded once before the start of the experimental phase on day −1. During the experimental phase, individual BW were recorded 1 to 2 times per week to calculate the dosing volume and to monitor weight loss.

[8] = th3/+ mice, all animals, mature RBCs in whole blood at end of study (pre-terminally d22)
[9] = percent of parent Ter119+ spleen cells, female th3/+ mice, DFX 30 mg/kg QD, Fpn127 120 mg/kg QD p.o., end of study, mean

SMILES: O=C(NCc1ncccc1F)c1coc(CCNCCc2nc3ccccc3[nH]2)n1 [Fpn127]
- effect on TSAT ([1]; Hbbth3/+ mice, day 23 (FIG. 10)): significantly decreased
- TSAT ([1]; calculated from Tf and serum iron, th3/+ mice, day 23, 1 h after last DFX dose, approx. 20 h after last Fpn127 dose, all animals, mean): 17.7%
- effect on serum iron vs vehicle treated th3/+ and WT animals ([1]; day 23, last Fpn127 dose given 20 h before (FIG. 10)): significantly reduced
- serum iron ([1]; th3/+ mice, day 23, 1 h after last DFX dose (30 mg/kg), approx. 20 h after last Fpn127 dose (120 mg/kg), all animals, mean): 19.9 ± 3.3 µM and 19.9 µM
- plasma levels of Fpn127 ([2]; approximately 20 h after the last dose of Fpn127): low
- plasma exposure of Fpn127, in presence vs absence of DFX ([2]; day 23 (FIG. 11)): comparable
- Plasma exposure of Fpn127 at the end of the study (mean) ([2]; th3/+ mice, all animals, plasma collected on day 23, approximately 20 h after the last dose of Fpn127, LC-MS/MS): 68 ng/mL
- change of Hb levels compared to vehicle-treated mice ([3]; Hbb^th3/+ mice, by the study end, Fpn127 120 mg/kg QD, DFX 30 mg/kg QD): 13 g/L
- Hb levels during the study duration ([3]; Hbbth3/+ animals (FIG. 6)): increased with time
- Hb concentration ([3]; DFX 30 mg/kg QD, day 1 (before dosing), all animals): 85 g/L
- Hb concentration ([3]; DFX 30 mg/kg QD, day 1 (before dosing), females): 85 ± 4 g/L and 85 g/L
- Hb concentration ([3]; DFX 30 mg/kg QD, day 1 (before dosing), males): 85 ± 6 g/L and 85 g/L
- Hb concentration ([3]; DFX 30 mg/kg QD, day 8, all animals): 92 g/L
- Hb concentration ([3]; DFX 30 mg/kg QD, day 8, females): 93 g/L
- Hb concentration ([3]; DFX 30 mg/kg QD, day 8, males): 90 g/L
- Hb concentration ([3]; DFX 30 mg/kg QD, day 15, all animals): 96 g/L
- Hb concentration ([3]; DFX 30 mg/kg QD, day 15, females): 99 g/L
- Hb concentration ([3]; DFX 30 mg/kg QD, day 15, males): 93 g/L
- Hb concentration ([3]; DFX 30 mg/kg QD, day 22, all animals): 98 g/L
- Hb concentration ([3]; DFX 30 mg/kg QD, day 22, females): 101 g/L
- Hb concentration ([3]; DFX 30 mg/kg QD, day 22, males): 95 g/L
- effect on EPO levels ([4]; Hbbth3/+ animals, day 23 (FIG. 10)): reduced EPO levels
- EPO ([4]; serum, th3/+ mice, day 23, DFX 30 mg/kg QD, Fpn127 120 mg/kg QD p.o., all animals, mean): 3938 ± 1167 pg/mL and 3938 pg/mL
- proportion of PS-positive RBC (annexin V staining) ([5]; Hbbth3/+ mice (FIG. 12)): significantly decreased
- RBC function/quality (oxidative stress, apoptosis and maturation) ([5]; Hbbth3/+ mice, summary): improved RBC quality
- proportion of ROS-producing RBC ([5]; compared to Hbbth3/+ mice treated with vehicle or DFX alone, CM-H2DCFDA (FIG. 12)): significantly decreased
- RBC containing mitochondria ([5]; compared to vehicle-treated and DFX-treated Hbbth3/+ mice (FIG. 12)): less RBC containing mitochondria
- % Annex in V-positive RBCs (mean) [5, 8]: 0.29%
- % Mito Tracker-positive RBCs (mean) [5, 8]: 0.19%
- % ROS-positive RBCs (mean) [5, 8]: 32.82%
- RBC percentage in spleen ([6]; Hbbth3/+ mice (FIG. 9)): increased
- percentage of immature erythroid cells in spleen ([6]; Hbbth3/+ mice (FIG. 9)): markedly reduced
- basophilic erythroblasts, frequency of parent [6, 9]: 4.94%
- mature erythrocytes, frequency of parent [6, 9]: 53.52%
- orthochromatic erythroblasts, frequency of parent [6, 9]: 14.65%
- polychromatic erythroblasts, frequency of parent [6, 9]: 9.44%
- pro-erythroblasts, frequency of parent [6, 9]: 1.74%
- tolerability / clinical symptoms ([7]; Hbb^th3/+ mice, DFX 30 mg/kg QD, Fpn127 120 mg/kg QD p.o., 17 doses in 23 days): generally well tolerated
- effect on BW vs vehicle-treated Hbb^th3/+ mice or WT mice ([7]; males and females, once daily for the duration of the study (d22)): no effect on BW
- BW ([7]; DFX 30 mg/kg QD, Fpn127 120 mg/kg QD p.o., day 1, all animals): 22.2 g
- BW ([7]; DFX 30 mg/kg QD, Fpn127 120 mg/kg QD p.o., day 1, females): 19.4 ± 1.0 g and 19.4 g
- BW ([7]; DFX 30 mg/kg QD, Fpn127 120 mg/kg QD p.o., day 1, males): 25.1 ± 1.0 g and 25.1 g
- BW ([7]; DFX 30 mg/kg QD, Fpn127 120 mg/kg QD p.o., day 3, all animals): 23.6 g
- BW ([7]; DFX 30 mg/kg QD, Fpn127 120 mg/kg QD p.o., day 3, females): 20.3 g
- BW ([7]; DFX 30 mg/kg QD, Fpn127 120 mg/kg QD p.o., day 3, males): 26.9 g
- BW ([7]; DFX 30 mg/kg QD, Fpn127 120 mg/kg QD p.o., day 7, all animals): 23.1 g
- BW ([7]; DFX 30 mg/kg QD, Fpn127 120 mg/kg QD p.o., day 7, females): 19.8 g
- BW ([7]; DFX 30 mg/kg QD, Fpn127 120 mg/kg QD p.o., day 7, males): 26.5 g
- BW ([7]; DFX 30 mg/kg QD, Fpn127 120 mg/kg QD p.o., day 10, all animals): 23.4 g
- BW ([7]; DFX 30 mg/kg QD, Fpn127 120 mg/kg QD p.o., day 10, females): 20.3 g
- BW ([7]; DFX 30 mg/kg QD, Fpn127 120 mg/kg QD p.o., day 10, males): 26.5 g
- BW ([7]; DFX 30 mg/kg QD, Fpn127 120 mg/kg QD p.o., day 14, all animals): 23.3 g
- BW ([7]; DFX 30 mg/kg QD, Fpn127 120 mg/kg QD p.o., day 14, females): 20.2 g
- BW ([7]; DFX 30 mg/kg QD, Fpn127 120 mg/kg QD p.o., day 14, males): 26.3 g
- BW ([7]; DFX 30 mg/kg QD, Fpn127 120 mg/kg QD p.o., day 17, all animals): 23.2 g
- BW ([7]; DFX 30 mg/kg QD, Fpn127 120 mg/kg QD p.o., day 17, females): 19.7 g
- BW ([7]; DFX 30 mg/kg QD, Fpn127 120 mg/kg QD p.o., day 17, males): 26.6 g
- BW ([7]; DFX 30 mg/kg QD, Fpn127 120 mg/kg QD p.o., day 22, all animals): 23.3 g
- BW ([7]; DFX 30 mg/kg QD, Fpn127 120 mg/kg QD p.o., day 22, females): 19.8 g
- BW ([7]; DFX 30 mg/kg QD, Fpn127 120 mg/kg QD p.o., day 22, males): 26.7 g
